These results are taken from PubChem BioAssay (NCI).

Structures are written as SMILES.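 Compound exposure: 48 hours, 5 concentrations, 96-well plates. TGI is the concentration that stops growth completely.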

The first experiment has as its system SF-295 CNS. Nature of the experiment: NCI tumour cell line growth inhibition, 48 h.
In the case of `COc1cc(NS(=O)(=O)c2ccc(C)cc2)c2nccnc2c1`, the TGI is greater than 100 µM.

The subject of the next experiment is SK-MEL-2 melanoma. Nature of the experiment: NCI tumour cell line growth inhibition, 48 h.
Turning to `NC1=NN(c2ccccc2)C(=O)C1C(=O)CCC(=O)Nc1cccc(Cl)c1` (stereo not drawn), the TGI was greater than 100 µM.

Regarding `N#C/C(=C/c1cccc(Oc2ccccc2)c1)c1ccccc1`, the TGI was greater than 100 µM.

In turn, `COc1cc(NS(=O)(=O)c2ccc(C)cc2)c2nccnc2c1` yielded a TGI of 54.5 µM.

Another experiment concerns RXF 393 renal. Put plainly: NCI tumour cell line growth inhibition, 48 h.
As to `NC1=NN(c2ccccc2)C(=O)C1C(=O)CCC(=O)Nc1cccc(Cl)c1` (stereo not drawn), the TGI is greater than 100 µM.

Compound `COc1cc(NS(=O)(=O)c2ccc(C)cc2)c2nccnc2c1` showed a TGI of 64.7 µM.

As for `O=c1oc(-c2ccccc2)cn1-c1ccccc1`, the TGI is greater than 100 µM.

The test system of the next experiment is EKVX NSCLC. Put plainly: NCI tumour cell line growth inhibition, 48 h.
Regarding `NC1=NN(c2ccccc2)C(=O)C1C(=O)CCC(=O)Nc1cccc(Cl)c1` (stereo not drawn), the TGI was greater than 100 µM.

As to `N#C/C(=C/c1cccc(Oc2ccccc2)c1)c1ccccc1`, the TGI is greater than 100 µM.

`COc1cc(NS(=O)(=O)c2ccc(C)cc2)c2nccnc2c1`: the TGI is greater than 100 µM.

In a further experiment the test system is SK-MEL-28 melanoma. Put plainly: NCI tumour cell line growth inhibition, 48 h.
As for `NC1=NN(c2ccccc2)C(=O)C1C(=O)CCC(=O)Nc1cccc(Cl)c1` (stereo not drawn), the TGI is greater than 100 µM.

As to `N#C/C(=C/c1cccc(Oc2ccccc2)c1)c1ccccc1`, the TGI was greater than 100 µM.

Compound `COc1cc(NS(=O)(=O)c2ccc(C)cc2)c2nccnc2c1` yielded a TGI greater than 100 µM.

`O=c1oc(-c2ccccc2)cn1-c1ccccc1` showed a TGI greater than 100 µM.

The next experiment deals with LXFL 529 NSCLC. Nature of the experiment: NCI tumour cell line growth inhibition, 48 h.
Take `NC1=NN(c2ccccc2)C(=O)C1C(=O)CCC(=O)Nc1cccc(Cl)c1` (stereo not drawn): the TGI was greater than 100 µM.

The compound `N#C/C(=C/c1cccc(Oc2ccccc2)c1)c1ccccc1` yielded a TGI greater than 100 µM.

For `COc1cc(NS(=O)(=O)c2ccc(C)cc2)c2nccnc2c1`, the TGI was greater than 100 µM.

The compound `O=c1oc(-c2ccccc2)cn1-c1ccccc1` came in with a TGI greater than 100 µM.

Another experiment deals with UO-31 renal. Put plainly: NCI tumour cell line growth inhibition, 48 h.
`NC1=NN(c2ccccc2)C(=O)C1C(=O)CCC(=O)Nc1cccc(Cl)c1` (stereo not drawn) registered a TGI greater than 100 µM.

In turn, `N#C/C(=C/c1cccc(Oc2ccccc2)c1)c1ccccc1` showed a TGI greater than 100 µM.

`COc1cc(NS(=O)(=O)c2ccc(C)cc2)c2nccnc2c1`: the TGI is greater than 100 µM.

In the next experiment the test system is K-562 leukemia. Put plainly: NCI tumour cell line growth inhibition, 48 h.
`NC1=NN(c2ccccc2)C(=O)C1C(=O)CCC(=O)Nc1cccc(Cl)c1` (stereo not drawn) came in with a TGI greater than 100 µM.

As for `N#C/C(=C/c1cccc(Oc2ccccc2)c1)c1ccccc1`, the TGI is greater than 100 µM.

Consider `COc1cc(NS(=O)(=O)c2ccc(C)cc2)c2nccnc2c1`, for which the TGI is greater than 100 µM.

With `O=c1oc(-c2ccccc2)cn1-c1ccccc1`, the TGI was greater than 100 µM.

In a further experiment the test system is A549 NSCLC. Put plainly: NCI tumour cell line growth inhibition, 48 h.
In the case of `NC1=NN(c2ccccc2)C(=O)C1C(=O)CCC(=O)Nc1cccc(Cl)c1` (stereo not drawn), the TGI is greater than 100 µM.

Compound `N#C/C(=C/c1cccc(Oc2ccccc2)c1)c1ccccc1` came in with a TGI greater than 100 µM.

In the case of `COc1cc(NS(=O)(=O)c2ccc(C)cc2)c2nccnc2c1`, the TGI was greater than 100 µM.

A further experiment concerns HCC-2998 colon. Put plainly: NCI tumour cell line growth inhibition, 48 h.
As to `NC1=NN(c2ccccc2)C(=O)C1C(=O)CCC(=O)Nc1cccc(Cl)c1` (stereo not drawn), the TGI is greater than 100 µM.

Regarding `N#C/C(=C/c1cccc(Oc2ccccc2)c1)c1ccccc1`, the TGI is greater than 100 µM.

`COc1cc(NS(=O)(=O)c2ccc(C)cc2)c2nccnc2c1` showed a TGI greater than 100 µM.

The compound `O=c1oc(-c2ccccc2)cn1-c1ccccc1` had a TGI greater than 100 µM.

In another experiment the test system is TK-10 renal. Put plainly: NCI tumour cell line growth inhibition, 48 h.
`NC1=NN(c2ccccc2)C(=O)C1C(=O)CCC(=O)Nc1cccc(Cl)c1` (stereo not drawn) gave a TGI greater than 100 µM.

`N#C/C(=C/c1cccc(Oc2ccccc2)c1)c1ccccc1` yielded a TGI greater than 100 µM.

As for `COc1cc(NS(=O)(=O)c2ccc(C)cc2)c2nccnc2c1`, the TGI was greater than 100 µM.

Another experiment has as its system MOLT-4 leukemia. Put plainly: NCI tumour cell line growth inhibition, 48 h.
For the compound `N#C/C(=C/c1cccc(Oc2ccccc2)c1)c1ccccc1`, the TGI is greater than 100 µM.

Turning to `COc1cc(NS(=O)(=O)c2ccc(C)cc2)c2nccnc2c1`, the TGI amounted to 52.3 µM.

In the case of `O=c1oc(-c2ccccc2)cn1-c1ccccc1`, the TGI is greater than 100 µM.

For a further experiment, the system named is KM12 colon. Nature of the experiment: NCI tumour cell line growth inhibition, 48 h.
As for `NC1=NN(c2ccccc2)C(=O)C1C(=O)CCC(=O)Nc1cccc(Cl)c1` (stereo not drawn), the TGI is greater than 100 µM.

In turn, `N#C/C(=C/c1cccc(Oc2ccccc2)c1)c1ccccc1` had a TGI greater than 100 µM.

With `COc1cc(NS(=O)(=O)c2ccc(C)cc2)c2nccnc2c1`, the TGI was greater than 100 µM.

A further experiment concerns CAKI-1 renal. Put plainly: NCI tumour cell line growth inhibition, 48 h.
With `NC1=NN(c2ccccc2)C(=O)C1C(=O)CCC(=O)Nc1cccc(Cl)c1` (stereo not drawn), the TGI was greater than 100 µM.

The compound `N#C/C(=C/c1cccc(Oc2ccccc2)c1)c1ccccc1` had a TGI greater than 100 µM.

Turning to `COc1cc(NS(=O)(=O)c2ccc(C)cc2)c2nccnc2c1`, the TGI was greater than 100 µM.

A further experiment deals with NCI-H23 lung. Put plainly: NCI tumour cell line growth inhibition, 48 h.
In turn, `NC1=NN(c2ccccc2)C(=O)C1C(=O)CCC(=O)Nc1cccc(Cl)c1` (stereo not drawn) showed a TGI greater than 100 µM.

The compound `N#C/C(=C/c1cccc(Oc2ccccc2)c1)c1ccccc1` gave a TGI greater than 100 µM.

Compound `COc1cc(NS(=O)(=O)c2ccc(C)cc2)c2nccnc2c1` returned a TGI greater than 100 µM.

As to `O=c1oc(-c2ccccc2)cn1-c1ccccc1`, the TGI was greater than 100 µM.
